Assay results published in patent publication US11046691B1 (IDEAYA BIOSCIENCES, INC., priority 2018, dated 2021).

Biological target: hMAT2A (Homo sapiens (Human), UniProt P31153)
Experiment: Phosphate Sensor Fluorescence Assay (MAT2A enzyme inhibition)
Format: biochemical
Conditions: L-methionine 500 uM, ATP 500 uM, class symbols
Protocol: The ability of the compound of present disclosure to inhibit MAT2A enzyme was determined using the Malachite Green or Phosphate Sensor Fluorescence Assay described below.
B. Phosphate Sensor Fluorescence Assay
MAT2A enzyme is incubated with a test compound in DMSO or DMSO and its substrates (L-methionine and ATP) in a microtiter plate. The enzymatic reaction is stopped by the addition of Working Phosphate Sensor Mixture. The plate is analyzed for fluorescence at 450 nm.
Assay Buffer: 50 mM Tris, pH 7.5/50 mM KCl/10 mM MgCl2/0.01% Brij-35/1 mM DTT/0.1% BGG/40 nM PNP/6 uM 7-MEG
L-methionine: 500 uM before the addition of Working Phosphate Sensor Mixture
ATP: 500 uM before the addition of Working Phosphate Sensor Mixture
Test compounds or DMSO were added to the appropriate well suing D300e digital dispenser. 5 μl/well of Assay Buffer was added to the wells corresponding to the negative control and 5 μl/well of MAT2A was added to all the wells except for those corresponding to the negative control. After incubating the plate at room temperature for 15 minutes, 5 μl/well of the 1 mM L-methionine/1 mM ATP mixture was added to all wells. The plate was centrifuged at 1000 rpm for 1 minute and then incubated at room temperature for 1 hour. 5 μl of the Working Phosphate Sensor Mixture was added to all wells and the plate was centrifuged at 1000 rpm for 1 minute. The plate was read for fluorescence at 450 nm after exciting at 430 nm.
Percent inhibition was calculated in Chemical and Biological Information System (CBIS), (ChemInnovation Software Inc.). Curves were fitted by CBIS as % inhibition vs. log [compound concentration] using a 4-parameter inhibition model. Fit=(A+((B−A)/(1+((C/x)^D)))) Res=(y−fit)

Chain of hMAT2A (P31153 whole entry): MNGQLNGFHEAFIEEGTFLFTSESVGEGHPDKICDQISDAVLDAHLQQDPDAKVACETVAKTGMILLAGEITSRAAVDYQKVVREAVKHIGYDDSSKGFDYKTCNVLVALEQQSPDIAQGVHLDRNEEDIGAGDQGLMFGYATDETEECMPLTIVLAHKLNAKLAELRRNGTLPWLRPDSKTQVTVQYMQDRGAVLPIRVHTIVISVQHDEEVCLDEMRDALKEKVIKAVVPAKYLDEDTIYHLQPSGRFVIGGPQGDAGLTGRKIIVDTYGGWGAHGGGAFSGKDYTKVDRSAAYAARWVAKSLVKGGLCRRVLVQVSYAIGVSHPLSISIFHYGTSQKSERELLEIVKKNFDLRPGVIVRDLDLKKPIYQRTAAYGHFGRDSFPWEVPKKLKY

Row | IC50 [nM] | Structure (SMILES)
1 | < 200 | O=c1nc(N2CC[C@@H](O)C2)c2ccc(C3CC3)cc2n1-c1ccccc1 [Example 374, 4-((3R)-3-hydroxypyrrolidinyl)-7-cyclopropyl-1-phenylhydroquazolin-2-one]
2 | < 200 | CN(C)c1nc(=O)n(-c2ccc3[nH]ncc3c2)c2cc(Cl)ccc12 [Example 280, 7-chloro-4-(dimethylamino)-1-(1H-indazol-5-yl)quinazolin-2(1H)-one]
3 | < 200 | CNc1nc(=O)n(-c2cccc(C3CC3)c2)c2cc(Cl)ccc12 [Example 353, 7-chloro-1-(3-cyclopropylphenyl)-4-(methylamino)hydroquinazolin-2-one]
4 | < 200 | CNc1nc(=O)n(-c2cccnc2C)c2cc(C(F)(F)F)ccc12 [Example 284]
5 | < 200 | [2H]C([2H])([2H])Nc1nc(=O)n(-c2ccccc2Cl)c2cc(Cl)ccc12 [Example 347, 7-chloro-1-(2-chlorophenyl)-4-((methyl-d3)amino)quinazolin-2(1H)-one]
6 | < 200 | Nc1nc(=O)n(-c2ccccc2)c2nc(C(F)(F)F)ccc12 [Example 138, 4-amino-1-phenyl-7-(trifluoromethyl)-hydropyridino[2,3-d]pyrimidin-2-one]
7 | < 200 | Cc1ccc2c(NCC(F)F)nc(=O)n(-c3ccccc3)c2n1 [Example 398, 4-[(2,2-difluoroethyl)amino]-7-methyl-1-phenylpyrido[2,3-d]pyrimidin-2(1H)-one]
8 | < 200 | Cc1ccc2c(N3CC(O)C3)nc(=O)n(-c3ccccc3)c2n1 [Example 384, 4-(3-hydroxyazetidin-1-yl)-7-methyl-1-phenylpyrido[2,3-d]pyrimidin-2(1H)-one]
9 | 1000 to 10000 | CC1(C)[C@H](O)C[C@@H]1Nc1nc(=O)n(-c2ccccc2Cl)c2nc(C(F)(F)F)ccc12 (relative stereo) [Example 276, 4-[((cis)-3-hydroxy-2,2-dimethylcyclo-butyl)amino]-1-(2-chlorophenyl)-7-(trifluoromethyl)-pyrido[2,3-d]-pyrimidin-2(1H)-one]
10 | < 200 | O=c1nc(N2CC(O)C2)c2ccc(C3CC3)cc2n1-c1ccccc1 [Example 372, 7-cyclopropyl-4-(3-hydroxyazetidin-1-yl)-1-phenylhydroquinazolin-2-one]
11 | < 200 | O=c1nc(NCC2CC2)c2cc(Cl)c(C3CC3)cc2n1-c1ccccc1Cl [Example 411]
12 | < 200 | CC1(O)CCN(c2nc(=O)n(-c3ccccc3Cl)c3nc(C(F)(F)F)ccc23)C1 (racemic) [Example 255]
13 | < 200 | COc1nc(=O)n(-c2ccccc2Cl)c2cc(C3CC3)ccc12 [Example 423, 1-(2-chlorophenyl)-7-cyclopropyl-4-methoxyhydroquinazolin-2-one]
14 | < 200 | CNc1nc(=O)n(-c2ccc(F)c(O)c2)c2cc(Cl)ccc12 [Example 310, 7-chloro-1-(4-fluoro-3-hydroxyphenyl)-4-(methylamino)hydroquinazolin-2-one]
15 | < 200 | O=c1nc(N[C@@H]2C[C@@H]2F)c2ccc(C3CC3)cc2n1-c1ccccc1Cl [Example 413, 4-[((2S,1R)-2-fluorocyclopropyl)amino]-1-(2-chlorophenyl)-7-cyclopropyl-hydroquinazolin-2-one]
16 | < 200 | O=c1nc(NCCCO)c2ccc(C(F)(F)F)nc2n1-c1ccccc1Cl [Example 247, 1-(2-chlorophenyl)-4-[(3-hydroxy-propyl)amino]-7-(trifluoromethyl)-pyrido[2,3-d]pyrimidin-2(1H)-one]
17 | < 200 | O=c1nc(NC2CC3(CCC3)C2)c2ccc(C(F)(F)F)nc2n1-c1ccccc1Cl [Example 245, 1-(2-chlorophenyl)-4-(spiro[3.3]heptan-2-ylamino)-7-(trifluoromethyl)pyrido-[2,3-d]pyrimidin-2(1H)-one]
18 | < 200 | CNc1nc(=O)n(-c2ccccc2)c2cc(Cl)cc(OCC(F)(F)F)c12 [Example 350, 7-chloro-4-(methylamino)-1-phenyl-5-(2,2,2-trifluoroethoxy)hydroquinazolin-2-one]

Row | IC50 [nM] | Structure (SMILES)
19 | 1000 to 10000 | CNc1nc(=O)n(-c2ccc3nccn3c2)c2cc(Cl)ccc12 [Example 251, 7-chloro-1-(4-hydroimidazo[1,2-a]-pyridin-6-yl)-4-(methylamino)hydro-quinazolin-2-one]
20 | 1000 to 10000 | CNc1nc(=O)n(-c2nccc(OC)n2)c2cc(Cl)ccc12 [Example 106, 7-chloro-1-(4-methoxypyrimidin-2-yl)-4-(methylamino)hydroquinazolin-2-one]
21 | < 200 | Cc1c(O)cccc1-n1c(=O)[nH]c(=O)c2ccc(Cl)cc21 [Example 110, 7-chloro-1-(3-hydroxy-2-methylphenyl)-1,3-dihydroquinazoline-2,4-dione]
22 | 500 to 1000 | CNc1nc(=O)n(-c2ccccc2)c2cc(Cl)cc(OCCN)c12 [Example 402, 5-(2-aminoethoxy)-7-chloro-4-(methyl-amino)-1-phenylhydroquinazolin-2-one]
23 | < 200 | CNc1nc(=O)n(-c2ccccc2Cl)c2nc(C(F)(F)F)ccc12 [Example 178, 1-(2-chlorophenyl)-4-(methylamino)-7-(trifluoromethyl)pyrido[2,3-d]pyrimidin-2(1H)-one]
24 | 200 to 500 | CC(=O)Nc1nc(=O)n(-c2ccccc2)c2cc(Cl)ccc12 [Example 203, N-(7-chloro-2-oxo-1-phenyl-1,2-dihydroquinazolin-4-yl)acetamide]
25 | < 200 | COCCNc1nc(=O)n(-c2ccccc2Cl)c2nc(C(F)(F)F)ccc12 [Example 317, 1-(2-chlorophenyl)-4-[(2-methoxyethyl)-amino]-7-(trifluoromethyl)pyrido[2,3-d]-pyrimidin-2(1H)-one]
26 | < 200 | CC(F)(F)c1ccc2c(NCC3CC3)nc(=O)n(-c3ccccc3Cl)c2c1 [Example 425, 1-(2-chlorophenyl)-4-((cyclopropyl-methyl)amino)-7-(1,1-difluoroethyl)-quinazolin-2(1H)-one]
27 | 500 to 1000 | O=c1nc(N2CCC2)c2ccc(N3CCC3)cc2n1-c1ccccc1 [Example 94, 4,7-di(azetidin-1-yl)-1-phenylhydro-quinazolin-2-one]
28 | < 200 | CNc1nc(=O)n(-c2cccc(C(=O)O)c2)c2cc(Cl)ccc12 [Example 133, 3-[7-chloro-4-(methylamino)-2-oxo-hydroquinazolin-1-yl]benzoic acid]
29 | < 200 | O=c1nc(N[C@@H]2CC[C@@H]2O)c2ccc(C(F)(F)F)nc2n1-c1ccccc1Cl (atropisomer, axis not shown; (Sa)) [Example 335, 4-[((2S,1R)-2-hydroxycyclobutyl)-amino]-(1Sa)-(2-chlorophenyl)-7-(trifluoromethyl)hydro-pyrido[2,3-d]-pyrimidin-2(1H)-one]
30 | < 200 | O=c1nc(NC2CC2)c2ccc(C(F)(F)F)nc2n1-c1ccccc1Cl [Example 308, 1-(2-chlorophenyl)-4-(cyclopropyl-amino)-7-(trifluoromethyl)pyrido[2,3-d]pyrimidin-2(1H)-one]
31 | < 200 | CN(CC(F)F)c1nc(=O)n(-c2ccccc2)c2cc(Cl)ccc12 [Example 205, 4-[(2,2-difluoroethyl)methylamino]-7-chloro-1-phenylhydroquinazolin-2-one]
32 | < 200 | O=c1nc(NCC(F)(F)F)c2ccc(C3CC3)cc2n1-c1ccccc1 [Example 385, 7-cyclopropyl-1-phenyl-4-[(2,2,2-trifluoroethyl)amino]hydroquinazolin-2-one]
33 | < 200 | CNc1nc(=O)n(-c2ccccc2Cl)c2cc(C(F)(F)F)ccc12 [Example 102, 1-(2-chlorophenyl)-4-(methylamino)-7-(trifluoromethyl)hydroquinazolin-2-one]
34 | < 200 | [2H]C([2H])([2H])Nc1nc(=O)n(-c2ccccc2)c2cc(C(F)(F)F)ccc12 [Example 369, 4-((methyl-d3)amino)-1-phenyl-7-(trifluoromethyl)quinazolin-2(1H)-one]
35 | < 200 | CNc1nc(=O)n(-c2cccc(O)c2F)c2cc(Cl)ccc12 [Example 333, 7-chloro-1-(2-fluoro-3-hydroxyphenyl)-4-(methylamino)quinazolin-2(1H)-one]

Same assay, conditions: L-methionine 500 uM, ATP 500 uM, numeric bound

Row | IC50 [nM] | Structure (SMILES)
36 | > 10000 | O=C(O)[C@H]1CCCN1c1nc(=O)n(-c2ccccc2)c2cc(Cl)ccc12 [Example 224, (2R)-1-(7-chloro-2-oxo-1-phenylhydro-quinazolin-4-yl)pyrrolidine-2-carboxylic acid]
37 | > 10000 | O=C(O)[C@@H]1CCCN1c1nc(=O)n(-c2ccccc2)c2cc(Cl)ccc12 [Example 195, (2S)-1-(7-chloro-2-oxo-1-phenylhydro-quinazolin-4-yl)pyrrolidine-2-carboxylic acid]
38 | > 10000 | Cc1ccccc1-n1c(=O)[nH]c(=O)c2ccc(C3CC3)cc21 [Example 375, 7-cyclopropyl-1-(o-tolyl)quinazoline-2,4(1H,3H)-dione]
39 | > 10000 | O=c1[nH]c(=O)n(-c2nc3ccccc3s2)c2cc(Cl)ccc12 [Example 253, 1-benzothiazol-2-yl-7-chloro-1,3-dihydroquinazoline-2,4-dione]
40 | > 10000 | O=c1[nH]c(=O)n(-c2ccccc2)c2c(Cl)c(C(F)(F)F)ccc12 [Example 361]
